Read-outs that look alike come from different tables or passages of the source. Each block holds one molecule with its values, some of them ahead of it.
Experiments:
Akt(S473) = assay: Phospho-Akt(S473) in PC3 cell lysates, MSD; assay type: cell-based, human; settings: PC3, 1 hour exposure; read-out: p-Akt (S473) IC50
Excerpt: The direct substrate for TORC1 was 4E-BP 1(T46) and indirect downstream substrate was S6RP(S235/S236). The direct substrate for TORC2 was Akt(S473) and indirect downstream substrates measured were GSK3β(S9) and PRAS40(T246). Additionally, the phosphorylation status of Akt(T308), a phosphorylation site for PDK1 was monitored.
MSD® biomarker detection assays provide a rapid and convenient method for measuring the total and phosphorylated levels of protein targets within a single small volume sample. These assays are available in both single-plex and multiplex formats. In a single-plex assay, an antibody for a specific protein target is coated on one electrode (or spot) per well. […] MSD Read Buffer that provides the appropriate chemical environment for ECL is added and the plate is read using an MSD SECTOR™ Imager. […] The instrument measures intensity of the emitted light to afford a quantitative measure of the amount of phosphorylated Akt or S6RP present in the sample. […]
The assay plate was incubated with 150 μL of MSD Blocker A Solution for 1 hour with shaking at room temperature. […] Then 150 μL of 1×MSD Read Buffer T was added to each well. The plate was read on the SECTOR Imager plate reader. The Excel data was transferred to Activity Base and IC50 values were calculated.
All data was analyzed using XLfit from IDBS. […]

pS6RP = pS6RP in PC3 tumors, MSD (Compound 2); assay type: in vivo, SCID mice; settings: Mus musculus; for inhibition at 0.1 mg/kg: 0.1 mg/kg single oral dose; for inhibition at 0.3 mg/kg: 0.3 mg/kg single oral dose
[1] = 0.5 h, read-out: PD Marker Inhibition (%) pS6RP
[2] = 1 h, read-out: PD Marker Inhibition (%) pS6RP
[3] = 3 h, read-out: PD Marker Inhibition (%) pS6RP
[4] = 6 h, read-out: PD Marker Inhibition (%) pS6RP
[5] = 10 h, read-out: PD Marker Inhibition (%) pS6RP
[6] = 24 h, read-out: PD Marker Inhibition (%) pS6RP

- IC50 (Akt(S473)): 10 nM
Compound: CO[C@H]1CC[C@H](N2C(=O)CNc3ncc(-c4ccc(C(C)(C)O)nc4)nc32)CC1 [Compound 1, 7-(6-(2-hydroxypropan-2-yl)pyridin-3-yl)-1-((1r,4r)-4-methoxycyclohexyl)-3,4-dihydropyrazino-[2,3-b]pyrazin-2(1H)-one]

Compound: CCN1C(=O)CNc2ncc(-c3ccc(-c4nc[nH]n4)nc3C)nc21 [Compound 2, 1-ethyl-7-(2-methyl-6-(1H-1,2,4-triazol-3-yl)pyridin-3-yl)-3,4-dihydropyrazino[2,3-b]pyrazin-2(1H)-one]
- inhibition at 0.1 mg/kg (pS6RP; [1]): 45.7%
- inhibition at 0.1 mg/kg (pS6RP; [2]): 38.2%
- inhibition at 0.1 mg/kg (pS6RP; [3]): 27.2%
- inhibition at 0.1 mg/kg (pS6RP; [4]): 23.3%
- inhibition at 0.1 mg/kg (pS6RP; [5]): 17.6%
- inhibition at 0.1 mg/kg (pS6RP; [6]): 0%
- inhibition at 0.3 mg/kg (pS6RP; [1]): 69.8%
- inhibition at 0.3 mg/kg (pS6RP; [2]): 79.6%
- inhibition at 0.3 mg/kg (pS6RP; [3]): 73.5%
- inhibition at 0.3 mg/kg (pS6RP; [4]): 67.3%
- inhibition at 0.3 mg/kg (pS6RP; [5]): 57.9%
- inhibition at 0.3 mg/kg (pS6RP; [6]): 33.3%
- inhibition at 1 mg/kg (pS6RP; 1 mg/kg single dose, through 10 hours, read-out: inhibition of pS6RP in tumor): ~80%
- inhibition at 1 mg/kg (pS6RP; 1 mg/kg single oral dose, 1 h, read-out: PD Marker Inhibition (%) pS6RP): 84.6%
- inhibition at 1 mg/kg (pS6RP; 1 mg/kg single oral dose, 3 h, read-out: PD Marker Inhibition (%) pS6RP): 89.5%
- inhibition at 1 mg/kg (pS6RP; 1 mg/kg single oral dose, 6 h, read-out: PD Marker Inhibition (%) pS6RP): 82.8%
- inhibition at 1 mg/kg (pS6RP; 1 mg/kg single oral dose, 10 h, read-out: PD Marker Inhibition (%) pS6RP): 78.7%
- inhibition at 1 mg/kg (pS6RP; 1 mg/kg single oral dose, 24 h, read-out: PD Marker Inhibition (%) pS6RP): 0%
- inhibition at 10 mg/kg (pS6RP; 10 mg/kg single dose, through 24 hours, read-out: inhibition of both PD markers (pS6RP, pAKT (S473))): ≥ 80%
- inhibition at 10 mg/kg (pS6RP; 10 mg/kg single oral dose, 1 h, read-out: PD Marker Inhibition (%) pS6RP): 85.3%
- inhibition at 10 mg/kg (pS6RP; 10 mg/kg single oral dose, 3 h, read-out: PD Marker Inhibition (%) pS6RP): 91.3%
- inhibition at 10 mg/kg (pS6RP; 10 mg/kg single oral dose, 6 h, read-out: PD Marker Inhibition (%) pS6RP): 93.5%
- inhibition at 10 mg/kg (pS6RP; 10 mg/kg single oral dose, 10 h, read-out: PD Marker Inhibition (%) pS6RP): 93.7%
- inhibition at 10 mg/kg (pS6RP; 10 mg/kg single oral dose, 24 h, read-out: PD Marker Inhibition (%) pS6RP): 93.2%
